Data from the Kinase Knowledgebase extract (Sharma et al. 2016).
pIC50: −log10 of the molar value.

Columns and labels:
CDK2 [1] = biological target: CDK2 (UniProt P24941); assay: Enzyme Assay
CDK2 [2] = biological target: CDK2 (UniProt P24941); assay: Enzyme Assay; conditions: for inhibition: concentration not given here
MAPK14 (human) = MAPK14 (human) (UniProt Q16539); assay: Inhibition of MAPK14 Kinase Activity; conditions: for inhibition: concentration not given here
ROCK2 (rat) = ROCK2 (rat) (UniProt Q62868); assay: Inhibition of ROCK2 Kinase Activity; conditions: concentration not given here
ROCK2 (rat), sequence (Q62868 whole entry, looked up): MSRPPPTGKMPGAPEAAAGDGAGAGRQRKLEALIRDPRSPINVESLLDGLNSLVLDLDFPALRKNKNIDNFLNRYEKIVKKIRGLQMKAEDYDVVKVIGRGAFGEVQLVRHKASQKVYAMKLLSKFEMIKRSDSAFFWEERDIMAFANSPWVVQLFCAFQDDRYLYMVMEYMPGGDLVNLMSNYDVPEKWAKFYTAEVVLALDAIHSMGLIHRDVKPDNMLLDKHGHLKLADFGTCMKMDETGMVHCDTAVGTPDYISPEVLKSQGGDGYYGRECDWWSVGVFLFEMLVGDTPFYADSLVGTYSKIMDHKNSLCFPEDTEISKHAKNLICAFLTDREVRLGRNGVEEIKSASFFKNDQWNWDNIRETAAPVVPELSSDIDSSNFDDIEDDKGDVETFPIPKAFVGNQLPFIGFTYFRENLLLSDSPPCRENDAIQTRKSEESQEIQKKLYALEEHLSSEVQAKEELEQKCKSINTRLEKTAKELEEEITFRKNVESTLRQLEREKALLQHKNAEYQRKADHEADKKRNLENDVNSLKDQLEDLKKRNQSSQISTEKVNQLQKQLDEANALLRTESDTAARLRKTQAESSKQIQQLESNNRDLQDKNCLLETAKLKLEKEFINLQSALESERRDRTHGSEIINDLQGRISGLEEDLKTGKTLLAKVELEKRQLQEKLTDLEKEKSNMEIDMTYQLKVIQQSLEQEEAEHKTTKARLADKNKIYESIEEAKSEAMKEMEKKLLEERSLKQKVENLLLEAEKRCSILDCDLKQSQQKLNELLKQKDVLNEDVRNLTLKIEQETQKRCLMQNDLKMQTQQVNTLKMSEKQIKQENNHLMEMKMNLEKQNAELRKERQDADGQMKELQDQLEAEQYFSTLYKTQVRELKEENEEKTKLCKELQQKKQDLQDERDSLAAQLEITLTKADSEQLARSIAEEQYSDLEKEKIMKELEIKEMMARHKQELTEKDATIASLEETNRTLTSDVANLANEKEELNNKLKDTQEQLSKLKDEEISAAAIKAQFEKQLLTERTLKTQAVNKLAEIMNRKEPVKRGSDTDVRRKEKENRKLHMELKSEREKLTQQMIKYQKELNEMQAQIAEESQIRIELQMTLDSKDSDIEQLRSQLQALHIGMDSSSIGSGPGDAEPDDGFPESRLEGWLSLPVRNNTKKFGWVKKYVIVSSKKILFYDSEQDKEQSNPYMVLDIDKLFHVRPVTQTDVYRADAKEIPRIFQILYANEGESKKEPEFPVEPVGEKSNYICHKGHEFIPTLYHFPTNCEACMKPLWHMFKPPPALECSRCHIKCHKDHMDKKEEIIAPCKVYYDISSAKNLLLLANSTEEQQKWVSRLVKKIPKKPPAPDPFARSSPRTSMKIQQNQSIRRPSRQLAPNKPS

MAPK14 (human), sequence (Q16539 whole entry, looked up): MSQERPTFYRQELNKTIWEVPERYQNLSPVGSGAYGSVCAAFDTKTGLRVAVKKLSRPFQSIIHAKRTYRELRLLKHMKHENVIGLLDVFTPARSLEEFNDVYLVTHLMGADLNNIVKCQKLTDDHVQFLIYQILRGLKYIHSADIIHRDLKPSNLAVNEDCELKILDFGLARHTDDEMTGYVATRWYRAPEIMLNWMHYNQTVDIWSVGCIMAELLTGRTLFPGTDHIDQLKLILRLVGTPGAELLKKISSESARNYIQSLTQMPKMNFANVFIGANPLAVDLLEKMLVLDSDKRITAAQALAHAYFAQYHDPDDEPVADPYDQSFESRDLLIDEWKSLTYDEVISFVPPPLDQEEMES

| SMILES | pIC50 (CDK2 [1]) | other results |
| --- | --- | --- |
| Cc1nc(N)sc1-c1ccnc(Nc2ccc(S(=O)(=O)NCc3ccccc3)cc2)n1 | 7.92 | – |
| Cc1nc(N(C)c2cccnc2)sc1-c1ccnc(Nc2ccc(N3CCOCC3)cc2)n1 | 5.49 | – |
| CNc1nc(C)c(-c2ccnc(Nc3cccc(S(=O)(=O)NC(C)=O)c3)n2)s1 | – | pIC50 (CDK2 [2]): 5.49 |
| CNc1nc(C)c(-c2ccnc(Nc3cc(OC)cc(OC)c3)n2)s1 | 6.49 | – |
| CNc1nc(C)c(-c2ccnc(Nc3ccc(S(=O)(=O)NCCO)cc3)n2)s1 | 8.22 | – |
| CNc1nc(C)c(-c2ccnc(Nc3cccc(S(C)(=O)=O)c3)n2)s1 | – | pIC50 (CDK2 [2]): 8.22; pIC50 (MAPK14 (human)): < 5.00 |
| CNc1nc(C)c(-c2ccnc(Nc3cccc(S(=O)(=O)NCCO)c3)n2)s1 | 6.49 | – |
| Cc1ccc(Nc2nccc(-c3sc(N)nc3C)n2)cc1S(=O)(=O)N1CCOCC1 | – | pIC50 (MAPK14 (human)): < 5.00 |
| Cc1nc(CS(=O)(=O)c2cccs2)sc1-c1ccnc(Nc2ccc(N3CCOCC3)cc2)n1 | – | inhibition (ROCK2 (rat)): 86%; inhibition (CDK2 [2]): 91%; inhibition (MAPK14 (human)): 67% |
| CNc1nc(C)c(-c2ccnc(Nc3ccc(S(=O)(=O)NCCOC)cc3)n2)s1 | 8.52 | – |
| Cc1nc(N)sc1-c1ccnc(Nc2cccc(S(=O)(=O)NCCO)c2)n1 | 6.92 | – |
| CCNS(=O)(=O)c1ccc(Nc2nccc(-c3sc(C)nc3C)n2)cc1 | 7.22 | – |
| Cc1nc(C)c(-c2ccnc(Nc3cccc(N4CCOCC4)c3)n2)s1 | 6.49 | – |
| CCNc1nc(C)c(-c2ccnc(Nc3ccc(S(=O)(=O)NCc4ccccc4)cc3)n2)s1 | – | pIC50 (CDK2 [2]): 5.49 |
| Cc1nc(C)c(-c2ccnc(Nc3cccc(S(C)(=O)=O)c3)n2)s1 | 6.49 | – |
| CCNc1nc(C)c(-c2ccnc(Nc3ccc(N4CCNCC4)cc3)n2)s1 | 6.60 | inhibition (ROCK2 (rat)): 95%; pIC50 (CDK2 [2]): 7.30; inhibition (CDK2 [2]): 99%; inhibition (MAPK14 (human)): 61% |
| CNc1nc(C)c(-c2ccnc(Nc3ccc(S(C)(=O)=O)cc3)n2)s1 | 8.70 | – |
| Cc1nc(NC(C)(C)C)sc1-c1ccnc(Nc2ccc(N3CCOCC3)cc2)n1 | 6.92 | – |

| SMILES | pIC50 (CDK2 [1]) | other results |
| --- | --- | --- |
| CCOC(=O)Cc1cccc(NS(=O)(=O)c2ccc(Nc3nccc(-c4sc(NC)nc4C)n3)cc2)c1 | – | pIC50 (CDK2 [2]): 5.49 |
| COCCNS(=O)(=O)c1cccc(Nc2nccc(-c3sc(N)nc3C)n2)c1 | 6.59 | pIC50 (MAPK14 (human)): < 5.00 |
| Cc1nc(N)sc1-c1ccnc(Nc2cccc(CNS(=O)(=O)C(F)(F)F)c2)n1 | 7.22 | – |
| CNc1nc(C)c(-c2ccnc(Nc3ccc(OC)c(C)c3)n2)s1 | 6.92 | – |
| CCNc1nc(C)c(-c2ccnc(Nc3ccc(S(=O)(=O)NCCOC)cc3)n2)s1 | – | pIC50 (CDK2 [2]): 7.92 |
| CNc1nc(C)c(-c2ccnc(Nc3ccc(C)c(S(=O)(=O)N4CCOCC4)c3)n2)s1 | 5.49 | pIC50 (MAPK14 (human)): < 5.00 |
| COCCOC(=O)COc1cccc(Nc2nccc(-c3sc(N)nc3C)n2)c1 | 6.00 | – |
| CCNc1nc(C)c(-c2ccnc(Nc3cccc(S(=O)(=O)NCC)c3)n2)s1 | 6.49 | – |
| CCNc1nc(C)c(-c2ccnc(Nc3cccc(CC(=O)OCCOC)c3)n2)s1 | – | pIC50 (CDK2 [2]): 5.49 |
| CNc1nc(C)c(-c2ccnc(Nc3ccc(S(N)(=O)=O)cc3)n2)s1 | – | pIC50 (MAPK14 (human)): < 5.00 |
| CCNc1nc(C)c(-c2ccnc(Nc3ccc(S(N)(=O)=O)cc3)n2)s1 | – | pIC50 (CDK2 [2]): 8.22 |
| CNc1nc(C)c(-c2ccnc(Nc3ccc(C)c(Br)c3)n2)s1 | 6.49 | – |
| CCNc1nc(C)c(-c2ccnc(Nc3ccc(CNC(C)=O)cc3)n2)s1 | – | pIC50 (CDK2 [2]): 6.92 |
| Cc1nc(N)sc1-c1ccnc(Nc2cccc(S(=O)(=O)N3CCOCC3)c2)n1 | 5.49 | – |
| Cc1nc(C)c(-c2ccnc(Nc3cccc(S(=O)(=O)NCCO)c3)n2)s1 | 6.49 | – |
| CNc1nc(C)c(-c2ccnc(Nc3cccc(S(=O)(=O)NC)c3)n2)s1 | 7.22 | – |
| COc1cc(Nc2nccc(-c3sc(CO)nc3C)n2)ccc1N1CCOCC1 | 5.60 | – |
| CCNc1nc(C)c(-c2ccnc(Nc3ccc(N4CCN(Cc5ccccc5)CC4)cc3)n2)s1 | – | pIC50 (CDK2 [2]): 5.49 |
